Measurements from US20090012326A1 (priority 2006, published 2009).
Entries after “also recorded” stand apart in the source; their conditions may differ.

Legend:
[1] = cited from earlier work
[2] = tested on: Wistar rats intoxicated with PQ
Procedure: The study was performed using (n=84) adults male Wistar rats obtained from Charles River S. A. (Barcelona, Spain), with a mean weight of 250±10 g. Animals were randomly distributed in number of two per polypropylene cages with a stainless steel net at the top and wood chips at the screen bottom, in a air-conditioned room (alternate cycles of 12 hours light and darkness, room temperature 22±2° C. and with a relative humidity of 50-60%) at least one week (quarantine) before starting the experience in order to acclimate to their surrounding conditions. Animals were allowed access to tap water and rat chow ad libitum during the quarantine period. Housing and experimental treatment of animals were in accordance with National Institutes of Health guidelines (ILAR 1996). The experiments complied with the current laws of Portugal.
(§1) The biochemical and histological studies were carried out with 60 animals, randomly distributed to ten groups. Each animal was individually housed during the experimental period in a polypropylene cage with a stainless steel net at the top and wood chips at the screen bottom. Tap water and rat chow were given ad libitum during the entire experiment. […] Each group was treated as follows: (doses were given per Kg/body weight):
For the evaluation of survival rate, 24 animals were randomly divided into four groups (control, NaSAL, PQ and PQ+NaSAL) of six animals each. […]

[3] = tested on: lung tissue of Wistar rats; conditions: rat, in vivo
Procedure: as §1
(I) Control group, n=6: animals treated with 0.9% NaCl. Animals were treated with one more administration of 0.9% NaCl two hours later and sacrificed 24 hours after the second injection;
(II) NaSAL group, n=18: animals treated with 0.9% NaCl. Animals were treated with one administration of NaSAL (200 mg/kg) two hours later and sacrificed 24 hours (n=6, NaSAL 24 h group), 48 hours (n=6, NaSAL 48 h group) and 96 hours (n=6, NaSAL 96 h group) after the second injection;
(III) PQ group, n=18: animals intoxicated with PQ (25 mg/kg). Animals were treated with one more administration of 0.9% NaCl two hours later and sacrificed 24 hours (n=6, PQ 24 h group), 48 hours (n=6, PQ 48 h group) and 96 hours (n=6, PQ 96 h group) after the second injection;
(IV) PQ+NaSAL group, n=18: animals intoxicated with PQ (25 mg/kg). Two hours later, animals were treated with NaSAL (200 mg/kg) and sacrificed 24 hours (n=6, PQ+NaSAL 24 h group), 48 hours (n=6, PQ+NaSAL 48 h group) and 96 hours (n=6, PQ+NaSAL 96 h group) after the second injection.
Two animals of each group were assigned to histological analysis. Lung samples were subjected to routine procedures for light microscopy (LM) and transmission electron microscopy (TEM) analysis. With the animals under anaesthesia, lung fixation was initiated in situ by perfusion through pulmonary artery, with 2.5% glutaraldehyde in 0.2 M sodium cacodylate buffer (pH 7.2-7.4) during 3 min. Subsequently, lungs were excised and sectioned into approximately 1 mm^3 cubic pieces. After two washing steps, of 30 minutes each with buffer solution, the specimens were dehydrated in graded alcohol for 2 hours, and then embedded in Epon resin. […]

CC(=O)Oc1ccccc1C(=O)O [acetylsalicylic acid]
share of the total plasma salicylate in the acetylated form ([1]; 30 minutes after a dose of 0.65 g): 27%
plasma half-life ([1]; in vivo): about 15 min

O=C([O-])c1ccccc1O.[Na+] [sodium salicylate, 2-hydroxybenzoic acid sodium salt]
survival ([2]; PQ 25 mg/Kg i.p., sodium salicylate 200 mg/Kg i.p. two hours after PQ, 30 days after PQ): 100%

C[n+]1ccc(-c2cc[n+](C)cc2)cc1.[Cl-].[Cl-] [paraquat, 1,1′-dimethyl-4,4′-bipyridinium dichloride]
lethality ([2]; intraperitoneal PQ dose, absence of treatment, at the end of 6 days): 100%
lung structure (light and electron micrographs) [3]: a marked vascular congestion and a notorious generalized alveolar collapse; also recorded: areas of necrosis of the alveolar wall and macrophages, cellular debris and inflammatory infiltrate within the alveolar space; also recorded: an intense vascular congestion as well as the presence of cellular debris and phagocytes within the alveolar space
